Biological target: T1, acellular dermis model (contracted collagen gel) (Bos taurus, UniProt P02453+P02465)
T1 construct: purchased Koken, Tokyo, Japan; host or cells: The gel was contracted by dermal fibroblasts, which were then destroyed by washing with de-ionized water
Experiment: Experimental induction of yellowish change in acellular dermis model by carbonyl modification or glycation (colorimetry b*)
Design: species or system bovine
Details: 37° C.; for yellowish change of the dermal model (b*), long term treatment: 50 μM, 50 days, FIGS. 6 C and D; for yellowish change of the gel (b*): 9 days, FIGS. 6 A and B
Protocol: Skin color was measured by using a chromameter Konica-Minolta CM 2600d. The measurement of excised skin samples was performed by placing the skin samples on a white board. Data were expressed in the CIE L*a*b* color space, and the parameter b* was employed as a value for yellowish color.
A dermal equivalent model consisted of contracted collagen gel containing a trace amount of other extracellular matrix was prepared according to the method described by Tsunenaga et al. with a slight modification. Briefly, dermal fibroblasts (1×10^6 cells) were cultivated in 10 ml of Dulbecco's modified Eagle's medium supplemented with 10% fetal bovine serum and 0.3% acid-solubilized bovine type I collagen (Koken, Tokyo, Japan) in a petri dish of 60 mm diameter at 37° C. and 5% CO2. After 7 days of culture, a contracted collagen gel approximately 15 mm diameter was produced. Thereafter, this dermal equivalent model was extensively washed with serial changes of an excess amount of de-ionized water to destroy fibroblasts and to remove soluble materials.
The prepared acellular dermis model was incubated in 2.5 ml of an aqueous solution of chemical reagents, containing acrolein (50 μM to 10 mM) and 4-hydroxynonenal (4-HNE, 50 μM to 10 mM) for the carbonyl modification, and ribose (200 mM) and glyoxal (10 mM) for glycation. They were INCUBATED at 37° C. and the solutions were changed twice a week. Changes taking place in their color were monitored by colorimetry.
To confirm a link suspected between the carbonyl modification and the yellowish change of the dermis, the inventors examined the effect of experimentally produced carbonyl modification on the color of an acellular dermis model, and selected a contracted collagen gel as a dermis model, and treated it with acrolein or 4-HNE to induce carbonyl modification, or with d-ribose or glyoxal to induce glycation as a reference. […] Furthermore, a long term treatment of the dermis model with 50 μM acrolein or 50 μM 4-HNE, which were almost equivalent to those of the physiological concentrations in human tissue, also led to the yellowish colorization (FIGS. 6 C and D).

T1 sequence (P02453 162-1217 limits assumed): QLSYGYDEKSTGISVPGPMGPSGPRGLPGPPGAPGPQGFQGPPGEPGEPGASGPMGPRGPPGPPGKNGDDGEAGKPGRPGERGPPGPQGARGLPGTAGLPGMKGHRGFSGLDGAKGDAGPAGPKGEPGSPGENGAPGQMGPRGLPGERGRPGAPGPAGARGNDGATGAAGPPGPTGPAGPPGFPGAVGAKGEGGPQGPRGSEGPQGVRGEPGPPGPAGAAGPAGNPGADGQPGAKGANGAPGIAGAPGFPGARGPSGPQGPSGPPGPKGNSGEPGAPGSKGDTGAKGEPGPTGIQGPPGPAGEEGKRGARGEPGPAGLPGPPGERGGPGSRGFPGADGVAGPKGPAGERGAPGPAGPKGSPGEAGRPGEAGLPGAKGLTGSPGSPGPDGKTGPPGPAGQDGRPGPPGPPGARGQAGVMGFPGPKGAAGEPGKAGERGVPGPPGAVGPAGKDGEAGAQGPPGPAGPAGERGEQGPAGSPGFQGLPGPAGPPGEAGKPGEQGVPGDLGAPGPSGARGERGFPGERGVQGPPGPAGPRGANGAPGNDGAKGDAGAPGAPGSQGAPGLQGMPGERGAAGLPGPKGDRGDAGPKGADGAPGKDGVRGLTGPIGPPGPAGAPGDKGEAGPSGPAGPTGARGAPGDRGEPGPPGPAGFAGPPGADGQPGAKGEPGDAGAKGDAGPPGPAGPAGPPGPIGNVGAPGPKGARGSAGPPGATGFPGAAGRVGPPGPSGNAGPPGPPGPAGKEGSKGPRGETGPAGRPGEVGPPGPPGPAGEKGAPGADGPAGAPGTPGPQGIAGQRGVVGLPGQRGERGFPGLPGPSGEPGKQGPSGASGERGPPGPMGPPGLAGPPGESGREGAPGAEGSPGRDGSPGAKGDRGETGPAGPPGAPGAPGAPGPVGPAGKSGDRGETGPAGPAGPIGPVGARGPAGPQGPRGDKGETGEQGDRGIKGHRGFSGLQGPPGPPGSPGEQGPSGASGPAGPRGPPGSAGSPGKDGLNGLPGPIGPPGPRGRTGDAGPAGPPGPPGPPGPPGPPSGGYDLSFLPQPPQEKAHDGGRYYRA
T1 sequence (P02465 80-1117 limits assumed): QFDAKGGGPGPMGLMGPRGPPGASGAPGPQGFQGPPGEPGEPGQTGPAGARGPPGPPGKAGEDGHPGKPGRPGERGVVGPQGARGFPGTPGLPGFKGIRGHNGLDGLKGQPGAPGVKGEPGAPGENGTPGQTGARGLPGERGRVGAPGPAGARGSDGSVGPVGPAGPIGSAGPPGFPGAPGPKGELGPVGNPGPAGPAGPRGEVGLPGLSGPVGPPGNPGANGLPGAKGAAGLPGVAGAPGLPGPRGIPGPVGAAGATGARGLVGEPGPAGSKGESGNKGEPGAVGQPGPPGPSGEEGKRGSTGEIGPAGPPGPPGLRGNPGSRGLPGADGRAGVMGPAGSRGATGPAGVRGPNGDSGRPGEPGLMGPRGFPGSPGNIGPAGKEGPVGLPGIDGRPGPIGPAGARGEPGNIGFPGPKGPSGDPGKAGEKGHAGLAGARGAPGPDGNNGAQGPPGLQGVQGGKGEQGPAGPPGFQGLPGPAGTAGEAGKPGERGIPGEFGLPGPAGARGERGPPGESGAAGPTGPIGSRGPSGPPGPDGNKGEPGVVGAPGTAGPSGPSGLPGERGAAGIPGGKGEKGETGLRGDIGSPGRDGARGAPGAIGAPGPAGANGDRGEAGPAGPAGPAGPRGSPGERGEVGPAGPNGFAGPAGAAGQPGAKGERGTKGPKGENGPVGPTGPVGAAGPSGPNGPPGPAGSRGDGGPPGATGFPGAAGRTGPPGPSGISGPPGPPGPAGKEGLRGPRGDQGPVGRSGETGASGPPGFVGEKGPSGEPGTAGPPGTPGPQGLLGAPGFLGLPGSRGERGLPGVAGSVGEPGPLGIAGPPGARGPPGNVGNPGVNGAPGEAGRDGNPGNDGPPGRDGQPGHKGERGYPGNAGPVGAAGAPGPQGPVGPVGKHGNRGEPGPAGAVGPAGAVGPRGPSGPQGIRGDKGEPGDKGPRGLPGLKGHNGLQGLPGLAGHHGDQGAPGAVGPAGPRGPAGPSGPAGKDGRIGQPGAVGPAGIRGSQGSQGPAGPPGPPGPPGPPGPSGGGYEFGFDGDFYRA

| yellowish change of the gel (b*) (200 mM) | SMILES | yellowish change of the dermal model (b*), long term treatment | yellowish change of the gel (b*) (10 mM) |
| --- | --- | --- | --- |
|  | CCCCCC(O)/C=C/C=O (stereo not drawn) [4-HNE, 4-hydroxynonenal] | reached the maximum in the first 10 days | significant yellowish change |
|  | C=CC=O [acrolein] | almost linear increase depending on the treatment period | significant yellowish change |
| only a slight yellowish change | O=C[C@H](O)[C@H](O)[C@H](O)CO [d-ribose] |  |  |
|  | O=CC=O [glyoxal] |  | only a slight yellowish change |
